Measured values published in patent US4623715A, “Novel peptides which are active on the central nervous system and have an action on the cholinergic system” (Hoechst Aktiengeselleschaft, priority 1984, dated 1986).

What was measured:
rats = assay: Behavior (grooming, yawning, stretching; urge to groom and move) after i.c.v. administration; assay type: in vivo; settings: i.c.v. administration of 10 μg
[1] = test system: cholinergic system (striatum of rats); assay: Biochemical effects in the striatum (acetylcholine and choline content) after s.c. administration; action on the cholinergic system; assay type: in vivo; settings: for Biochemical effects in the striatum: ACH (acetylcholine) / Biochemical effects in the striatum: CH (choline): s.c., at the dose printed in the same line (E2), arrow up/down = content increased/reduced; for Biochemical effects in the striatum: Dose mcg/kg s.c.; (rats): s.c. dose in rats at which the ACH/CH effects of the same line are reported
Experimental: At the same time, cholinergic mechanisms in the central nervous system (CNS) are influenced. In the striatum of rats, the choline content is reduced and the acetylcholine content is increased following subcutaneous administration of 10 μg.
The action of the compounds according to the invention on the cholinergic system is determined by a method described in J. Neurochem. 20 (1973), pages 1-8.

[2] = test system: acetylcholine conversion in various areas of the brain; settings: intracerebroventricular (i.c.v.) administration; cited from earlier work
[3] = test system: cholinergic system (striatum of rats); assay: Biochemical effects in the striatum (acetylcholine and choline content) after s.c. administration; action on the cholinergic system; assay type: in vivo; settings: s.c. administration of 1 μg
[4] = rats, subcutaneous administration of 10 μg

| Compound | urge to groom and move (rats) | acetylcholine content in the striatum [1, 4] | choline content in the striatum [1, 4] | acetylcholine conversion in various areas of the brain [2] | Biochemical effects in the striatum: ACH (acetylcholine) ([1]; rats) | Biochemical effects in the striatum: CH (choline) ([1]; rats) | Biochemical effects in the striatum: Dose mcg/kg s.c.; (rats) [1] [µg/kg] | acetylcholine content in the striatum ([3]; same actions as IV at 10 μg (increased)) | choline content in the striatum ([3]; same actions as IV at 10 μg (reduced)) |
| --- | --- | --- | --- | --- | --- | --- | --- | --- | --- |
| COC(=O)[C@H](Cc1ccccc1)NC(=O)[C@H](CCCCN)NC(=O)OCc1ccccc1 [IV, Z--Lys--Phe--OMe] | cause the urge to groom and move | increased | reduced | – | – | – | – | – | – |
| ACTH (SYSMEHFRWGKPVGKKRRPVKVYPNGAEDESAEAFPLEF; Corticotropin; UniProt P01189 138-176, looked up) [peptide hormone cited from the literature] | – | – | – | acceleration | – | – | – | – | – |
| ACTH--(1-24) [VI, reference compound] | – | – | – | acceleration | .dwnarw. | .uparw. | 0.01 to 1 | – | – |
| Z--D--Lys--Phe--NH--(CH2)8 --NH2.2HCl [V] | – | – | – | – | .uparw. | .dwnarw. | 1.0 | the same actions | the same actions |
